The series in a line: gradient 5% acetonitrile 3 min, to 50% in 2 min, to 85% in 15 min, held 3 min, 100 µL/min. Conditions: column: Zorbax Extend-C18 2.1 x 50 mm; eluents: water / acetonitrile, 0.1% formic acid. Put shortly:
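Standards, all pure, were combined into mixtures of ~100 molecules and run at 100 μL/min on a Zorbax Extend-C18 column (2.1 × 50 mm, 1.8 μm) with water and acetonitrile, each containing 0.1% formic acid. A coupled quadrupole time-of-flight mass spectrometer operated in positive and negative ionization mode. Retention time values come from computationally picked adduct peaks, each inspected manually.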
The compound `Cc1noc([C@@H]2CN(C(=O)c3ccsc3)C[C@H]2C(N)=O)n1` displayed an RP-LC retention time of 601 s.
Next, `O=C(CSc1ccc(-c2cccs2)nn1)N1CCN(c2ccccc2)CC1`: 848 s; `Cc1cc2nnc(SCC(=O)c3cc(C)n(CC4CCCO4)c3C)n2c2ccccc12` (stereo unspecified): 784 s; `CCOc1ccc(NC(=O)c2cn(-c3cc(N4CCC(C)CC4)ncn3)cn2)cc1`: 1110 s.
As for `CC(C)c1ccc(NC(=O)Cn2ccc3c(=O)n(C)c(=O)n(C)c32)cc1`, the RP-LC retention time is 772 s.
The figure for `CC(C)CNC(=O)C1CCN(c2cnc(N3CCCCCC3)nc2)CC1` is 716 s; for `Cc1ccc(NC(=O)Cc2nnc(-c3cnccn3)o2)cc1F` it is 714 s; for `O=c1c2cc(-c3ccc(F)cc3)nn2ccn1Cc1nc(-c2cccc(F)c2)no1` it is 1060 s.
Next, `COCCN1C(=O)c2cccn2CC1CNS(=O)(=O)c1cccc2nsnc12` (stereo unspecified): 677 s; `Cc1c(Cl)cccc1NC(=O)N1C[C@H](c2nc(-c3ccncc3)no2)[C@@H](C)C1`: 827 s.
Next, `CCc1ccc(S(=O)(=O)Nc2ccc(-c3cn4ccc(C)nc4n3)cc2)cc1`: 696 s; `COc1ccc(CNC2=NCCNC23CCN(S(=O)(=O)c2ccc(C)c(C)c2)CC3)cc1`: 775 s.
As to `O=C(c1cn(-c2cc(-c3nc(C4CC4)no3)ccn2)cn1)N1CCCCC1`, the RP-LC retention time stood at 810 s.
Next, `O=S(=O)(Cc1ccccc1F)N1CCC(c2noc(-c3ccncc3)n2)C1` (stereo unspecified): 839 s; `CCn1c(=O)c(=O)n(CC(=O)N2CCN(c3ccccn3)CC2)c2ccccc21`: 563 s.
The figure for `CCC(C(=O)N1CCC(C)CC1)n1cnc2onc(-c3ccc(Cl)cc3)c2c1=O` (stereo unspecified) is 1280 s.
The figure for `CC(=O)N1CCN(c2nc(C)cc(N3CCCC3)n2)CC1` is 580 s; for `CC(C)n1c(CN2CCOCC2)nc2cc(NC(=O)c3cccs3)ccc21` it is 640 s.
The compound `Cc1nn(-c2cc(N3CCCCC3)ncn2)c(C)c1CCC(=O)NCc1ccco1` yielded an RP-LC retention time of 811 s.
Next, `CCCCN1N=C(C(=O)N2CCC(C)CC2)S(=O)(=O)c2ccc(C)cc21`: 1060 s.
The figure for `O=C1Nc2ccc(Br)cc2/C1=C/C(=O)c1ccccc1` is 964 s; for `CCSc1nnc(NC(=O)CSc2nnc(-c3ccco3)o2)s1` it is 726 s.
The figure for `O=C(NCc1ccco1)Nc1ccc([N+](=O)[O-])cc1` is 852 s; for `Cc1ccc(CNC(=O)C2CCN(c3cnc4nccnc4c3)CC2)cc1` it is 705 s; for `CCN1C(=O)c2cc(C(=O)NCc3ccc(F)cc3)nn2CC1(C)C(=O)NC1CCCC1` (stereo unspecified) it is 734 s.
The compound `CS(=O)(=O)N1CCC(OC2CCN(C(=O)Nc3cccc(Cl)c3F)CC2)CC1` displayed an RP-LC retention time of 787 s.
Next, `Cc1cc(Br)ccc1NC(=O)CCc1nc(C2=CCN(C)CC2)no1`: 642 s; `Cc1ccc(Cl)cc1NC(=O)c1cc2ccccc2cc1O`: 1180 s; `Cc1sc2ccn(C)c(=O)c2c1C(=O)N1CCN(c2ccccn2)CC1`: 564 s.
Next, `CC1CCN(c2cc(-n3cnc(C(=O)N4CCOCC4)c3)ncn2)CC1`: 750 s; `Cc1cccc(NS(=O)(=O)c2cc3n(c2)CCCNC3=O)c1`: 652 s.
`O=C(Nc1cccc(F)c1)N1CCC2(C1)C(=O)Nc1ccccc12` (stereo unspecified): the RP-LC retention time is 730 s.
`CN(CCNC(=O)Cn1c2ccccc2c2cnn(C)c(=O)c21)Cc1ccccc1` returned an RP-LC retention time of 640 s.
Next, `Cc1ccc(N2C(=O)C3N=NN(c4ccccc4)C3C2=O)cc1C` (stereo unspecified): 1010 s; `CC(C)(CO)NC(=O)Cc1ccc(NC(=O)c2ccc(Cl)s2)cc1`: 704 s; `CC(C)c1nc(-c2ccc([N+](=O)[O-])cc2)cs1`: 1120 s.
The figure for `O=C(CCCn1c(=O)c2cccn2c2ccc(Br)cc21)NCc1ccco1` is 864 s; for `O=c1c2sccc2n(Cc2nc(-c3cccc(C(F)(F)F)c3)no2)c(=O)n1Cc1ccccc1` it is 1190 s.
Next, `Cc1ccc(C)c(CNS(=O)(=O)c2cc(-c3[nH]ncc3C(=O)N3CCCC3)oc2C)c1`: 835 s; `CCOC(=O)c1c(CN2CCN(CCO)CC2)n(C)c2cc(Br)c(OC(C)=O)cc12`: 679 s.
`CCCNC(=O)N1CCN(Cc2nc(-c3ccc(OCC)cc3)oc2C)CC1` had an RP-LC retention time of 661 s.
Next, `Cc1cccc(Nc2nc(CC(=O)NCc3ccccc3OC(F)(F)F)cs2)n1`: 708 s; `CCN(CCNC(=O)C1CCc2nc(N3CCOCC3)ncc2C1)c1ccccc1` (stereo unspecified): 591 s; `COc1cccc(N2CC(C(=O)Nc3nnc(-c4csc(C)n4)o3)CC2=O)c1` (stereo unspecified): 817 s.
The compound `COC(=O)CNC(=O)N1CCN(c2nc3ccccc3n3cccc23)CC1` returned an RP-LC retention time of 590 s.
The figure for `CCOc1ccc(Nc2c(C(=O)N3CCCCC3CC)cnc3nc(C)ccc23)cc1` (stereo unspecified) is 683 s; for `Cc1cc(C)cc(N2CCC(NC(=O)c3sccc3C)C2=O)c1` (stereo unspecified) it is 916 s; for `CCn1c(CN(c2ccc(F)cc2)S(C)(=O)=O)nnc1SCc1nnc(-c2ccccc2)o1` it is 760 s.
Turning to `CCc1cccc(C)c1Nc1c(-c2cccc(O)c2)nc2nc(C)cc(C)n12`, the RP-LC retention time is 712 s.
`COCCN1C(=O)[C@H]2CN(Cc3ccc(OC)c(OC)c3Cl)C[C@H]2C1=O` gave an RP-LC retention time of 620 s.
Next, `CCn1cc(-c2ccccc2)cc1C(=O)NC1CCCC1`: 1080 s; `Cc1nn(-c2nc(CC(=O)N3CCC(C)CC3)cs2)c(C)c1Cl`: 1190 s; `Cc1nc(NC(=O)c2ccc(OCc3nc(C4CC4)cs3)cc2)sc1C`: 969 s.
Next, `Cc1ccc(C)c(-c2cc3c4nn(CC(=O)NCc5ccco5)c(=O)n4ccn3n2)c1`: 883 s.
The figure for `Cc1ccc(-c2nnc(SCC(=O)Nc3ccc(C)cc3Br)o2)cc1` is 830 s.
`Cc1cc(C)cc(NC(=O)Cn2cc(-c3noc(-c4ccncc4)n3)nc2C)c1` registered an RP-LC retention time of 735 s.
The figure for `Cc1noc(C)c1C1CCCN1C(=O)Cc1cccc(Cl)c1` (stereo unspecified) is 810 s; for `CC(C)OC(=O)Cn1nc2ccc(S(=O)(=O)N3CCSCC3)cn2c1=O` it is 829 s.
`COC(=O)N(C)c1c(N)nc(-c2nn(Cc3ccccc3F)c3ncccc23)nc1N` had an RP-LC retention time of 729 s.
Next, `COCC(=O)Nc1cccn2nc(C(C)C)nc12`: 717 s; `Cc1sc(NC(=O)C2CCCCC2)nc1-c1ccc2c(c1)NC(=O)C(C)O2` (stereo unspecified): 940 s.
Next, `Cc1cc(C)cc(C(=O)N2CCC(n3c(-c4ccco4)nc4cccnc43)C2)c1` (stereo unspecified): 825 s; `CC(C)NC(=O)NCCN1CCN(c2ccccc2)CC1`: 569 s.
The figure for `COc1ccc(CNC(=O)C2(C)CCCN(S(=O)(=O)c3ccc(Br)cc3)C2)cc1` (stereo unspecified) is 1020 s; for `O=C(NCc1ccccn1)C1CCN(C(=O)c2ncn3c2COC(c2ccccc2)C3)CC1` (stereo unspecified) it is 602 s.
Take `O=C(c1cccs1)N1CCC2(CC1)NC(=O)N(Cc1ccccc1Cl)C2=O`: the RP-LC retention time turned out to be 821 s.
Next, `O=C(Cn1ccc2sccc2c1=O)Nc1ccc(F)c(F)c1`: 752 s; `CCc1nc(-c2ccc3c(c2)CCN3C(=O)Cc2ccc(F)cc2)no1`: 1030 s; `CC1CCN(c2cncnc2-n2cc(NC(=O)NC3CCCCC3)cn2)CC1`: 744 s.
For `Cc1oc(C2CCN(S(=O)(=O)c3cccs3)CC2)nc1C(=O)N1CCCC1`, the RP-LC retention time came to 856 s.
The compound `Cc1noc(C2(NC(=O)c3ccc[nH]c3=O)CCCCC2)n1` gave an RP-LC retention time of 621 s.
Next, `COc1ccccc1-c1noc(C2CCCN2C(=O)Nc2ccc(Cl)cc2)n1` (stereo unspecified): 920 s.
As for `CC1CCN(S(=O)(=O)c2ccc(-c3nnc(C4CCC4)o3)o2)CC1`, the RP-LC retention time was found to be 1030 s.
In turn, `COc1ccc2[nH]c3c(c2c1)CCNC31CCN(Cc2ccc(F)c(F)c2)CC1` yielded an RP-LC retention time of 587 s.
`COc1ccc(NC(=O)N2CCC(c3nc(C(=O)N(C)C)c(C)o3)CC2)c(OC)c1` gave an RP-LC retention time of 635 s.
Next, `CN(C)c1ccc(CCCNC(=O)Cc2ccc(Cl)cc2)cc1`: 604 s; `CCCNc1nc(-c2nnc(-c3cccc(C)c3)o2)nc2ccccc12`: 1000 s; `Cc1cccc(NC(=O)C2CCN(S(=O)(=O)c3cn(C(C)C)cn3)CC2)n1`: 632 s.
Next, `Cc1ccc(C)c(NC(=O)N2CC(n3cnnc3-c3ccccc3)C2)c1`: 712 s.
The figure for `O=C(Cc1ccsc1)N1CCC(c2nncn2-c2ccccc2)CC1` is 689 s; for `Cc1ccc(C)c(NC(=O)Cn2c(=O)cc(-c3nc(C)no3)c3ccccc32)c1` it is 910 s.

The values above are taken from the METLIN SMRT retention time set (Domingo-Almenara et al. 2019).
